# Laboratory results taken from patent US9914698B2, “Stearoyl amino acid salt and preparation method and application thereof” (Shanghai Jiaotong University School of Medicine, priority 2014, dated 2018).
# Where two headings read alike, the source gives them in different places. Marks after values point to notes of the source that are not given here.
# Tests used:
# [1] = tested on: gerbil model with global ischemia reperfusion injury; experiment: Dark avoidance test; type: in vivo; conditions: compared with the ischemia group; NsTyr-2K 15, 30, 60 mg/kg; nimotop positive control
# Description: (§1) Taking N-stearoyl amino acid potassium NsTyr-2K as an example, a gerbil model with global ischemia reperfusion injury was used to assess the protective role of NsTyr-2K against neurobehavioral disorder caused by cerebral ischemia-reperfusion injury by examining the changing behavioral indexes such as spatial, learning and cognitive functions in the perspective of overall animals during passive dark avoidance test and Morris water maze test.
# Dark avoidance test was used to evaluate the effects of NsTyr-2K influence on animal learning and memory abilities.
# [2] = tested on: Kunming mice; experiment: Acute toxicity test; conditions: mouse, in vivo
# Description: (§2) After oral administration of NsTyr-2K, the mice were weighed. […] However, their weight followed up rapidly as food intake recovered.
# (§3) After 15-day administration of NsTyr-2K, the mouse organs (brain, heart, lung, liver and kidney) were studied to see if there was any change.
# (§4) This means that mouse brain tissues had not been severely damaged under such dose, and that NsTyr-2K had high safety. Even so, it is necessary to conduct further long-term safety assessment of any possible side effect of NsTyr-2K on liver and hear in the following medicinal research and to precisely determine the amount of administration required.
# [3] = Acute toxicity test; conditions: mouse, in vivo; oral, Kunming mice
# Description: as §2, §3, §4
# [4] = tested on: obese mouse model; experiment: Administration test in obese mouse model (weight, food intake); type: in vivo, C57BL/6 mice; conditions: for obese mouse weight: four weeks
# Protocol: 2. Method: 60 C57BL/6 mice (aged 3 weeks, male, with a weight of 8.3 g each) were adaptively fed with 12% kcal normal diet for one week, and randomly divided into 6 groups, each consisting of 10 mice. One group (ND) continued to be fed with normal diet, the rest five groups (HFD I˜V) were fed with 45% kcal high-fat diet.
# In the whole test process the mice kept raised in the following environment: temperature: 23±3° C.; humidity: 50±5%; bright and dim alternating cycle: 12 h/12 h; freely available to diet and drinking water in the whole process.
# 2. Method: ND and HFD I were respectively taken as normal and high-fat diet blank control groups, and were treated with 0.5% sodium carboxymethyl cellulose solution (5 ml/kg/day); HFD II˜IV were taken as groups of recipients, and were treated with NST-2K (20, 60, 100 mg/kg/day); HFD V was taken as a positive control group, and treated with Orlistat (100 mg/kg/day). All the above drugs dissolved in aqueous solution of 0.5% sodium carboxymethyl cellulose and were administered. The administration remained four weeks. In each week average weight and food intake were kept in record until the phase of administration ended.
# [5] = Absorption kinetics after intragastric administration; type: in vivo; conditions: SD rats, oral 200 mg/kg
# Protocol: Ten SD rats weighing 150-180 g were randomly divided into two groups, each comprising five, with males and females combined. After intragastric administration of 200 mg/kg of saline solution containing NsTyr and NsTyr-2K, the average blood concentration-time curve thereof was respectively shown in FIG. 2.
# [6] = tested on: obese mouse model; experiment: H&E staining of fat and liver tissue of obese mice; type: in vivo, C57BL/6 mice
# Protocol: 2. Method: Epididymal fat and liver were fixed in 10% neutral formaldehyde solution for 48 h. After paraffin embedding they were made into […] of slices, and stained with hematoxylin-eosin (H&E staining). Light microscope was used to observe the size of fat cells, the structure of liver cells and adipose accumulation.
# [7] = tested on: obese mouse model; experiment: Collection and observation of fat and liver tissues of obese mice; type: in vivo, C57BL/6 mice; conditions: for perirenal fat percentage quality: HFD I blank 1.63 ± 0.10; for Epididymal fat percentage quality: HFD I blank 2.99 ± 0.08; for Liver percentage quality: HFD I blank 3.51 ± 0.07
# Description: 2. Method: After administration test in Embodiment 8, the mice were denied food overnight. Their abdominal cavity was opened to observe abdominal fat content in each group of the mice. Epididymal fat, perirenal fat and liver were separated and weighed.
# [8] = tested on: gerbil model with global ischemia reperfusion injury; experiment: Morris water maze test (cerebral ischemia); type: in vivo
# Description: as §1
# Up to day 4, for normal animals their latency fell to 29.8+/−12.55 s, and their swimming distance to 3,216.5+/−1,026.46 cm. From day 1 to day 2, there was no evident difference in the average latency before reaching the platform and the swimming distance prior to going onto the platform between the ischemia group of gerbils and any of the other groups. As training sessions increased, the latency and swimming distance of each group of gerbils before reaching the platform was shortened. The gap between the ischemia group and any of the other groups began to widen and reached the record on day 4.
# [9] = Equilibrium solubility, shake-flask method; type: physicochemical; conditions: 37 °C, thermodynamic from solid, read-out: Equilibrium solubility in buffer solution
# Protocol: The shake-flask method was used to test the equilibrium solubility of NsTyr, NsTyr-2K, NsTyr-2Na in water at 37° C. […] The apparent lipid-water distribution coefficient log p of NsTyr-2K, NsTyr-2Na was respectively 1.512 and 1.477. Under different pHs, see Table 1 for the equilibrium solubility test data of NsTyr-2K, NsTyr-2Na; and see Table 2 for the apparent lipid-water distribution coefficient of NsTyr-2K and NsTyr-2Na.
# [10] = both sexes, Sprague-Dawley (SD), rat, blood
smiles,measurement,setting,value
"CCCCCCCCCCCCCCCCCC(=O)N[C@@H](Cc1ccc(O)cc1)C(=O)[O-].[K+] [NsTyr-2K, N-stearoyl tyrosine potassium salt]",error counts within 5 min,[1],much fewer error counts within 5 min
same,latency,[1],much prolonged latency
same,behavioral abnormality,[2],no evidence of behavioral abnormality except loss of appetite and weight
same,organ coefficient,[2],"exerted certain influence upon mouse brain, heart and liver coefficients"
same,LD50 at 15 days,[3],> 2000 mg/kg
same,obese mouse weight,[4]; 100 mg/kg/day,can reduce obese mouse weight
same,appetite (average daily food intake),"[4]; 4-week administration, high-fat diet groups",neither NST-2K nor Orlistat suppressed appetite
same,obese mouse weight,"[4]; 20, 60 mg/kg/day",can inhibit weight gain in obese mice
same,"AUC multiplied, compared with NsTyr",[5],30 times
same,half-life period compared with NsTyr,[5],nearly doubled
same,"peak concentration Cmax multiplied, compared with NsTyr",[5],~20 times
same,AUC(0-inf),[5]; [10],3.69 µg·h/mL
same,AUC(0-t),[5]; [10],3.49 µg·h/mL
same,Cmax,[5]; [10],2.4 µg/mL
same,MRT last,[5]; [10],2.19 h
same,Tmax,[5]; [10],0.6 h
same,half-life,[5]; [10],2.9 h
same,size of epididymal fat cells,"[6]; HFD III, HFD IV (NST-2K 60, 100 mg/kg/day) and HFD V (Orlistat 100 mg/kg/day) vs HFD I",evidently smaller fat cells than HFD I
same,fat accumulation in liver tissues,"[6]; as the administration dose increased, vs HFD I",the accumulation began to ease
same,size of epididymal fat cells,[6]; low-dose (20 mg/kg/day),could not significantly shrink fat cells
same,perirenal fat percentage quality,[7]; 20 mg/kg/day,1.51 ± 0.07 g/100 g weight
same,Epididymal fat percentage quality,[7]; 20 mg/kg/day,2.94 ± 0.11 g/100 g weight
same,Liver percentage quality,[7]; 20 mg/kg/day,3.47 ± 0.05 g/100 g weight
same,perirenal fat percentage quality,[7]; 60 mg/kg/day,1.37 ± 0.04 g/100 g weight
same,Epididymal fat percentage quality,[7]; 60 mg/kg/day,2.72 ± 0.07 g/100 g weight
same,Liver percentage quality,[7]; 60 mg/kg/day,3.41 ± 0.06***^ g/100 g weight
same,perirenal fat percentage quality,[7]; 100 mg/kg/day,1.26 ± 0.05 g/100 g weight
same,Epididymal fat percentage quality,[7]; 100 mg/kg/day,2.64 ± 0.08 g/100 g weight
same,Liver percentage quality,[7]; 100 mg/kg/day,3.46 ± 0.07***^ g/100 g weight
same,abdominal fat pad,"[7]; increasing doses 20, 60, 100 mg/kg/day, compared with HFD I",the abdominal fat pad showed a shrinking trend
same,"abdominal fat quality, compared with Orlistat",[7]; same dose (100 mg/kg),better effects in reducing abdominal fat quality than Orlistat
same,period before finding the underwater platform and swimming distance,"[8]; 15 mg/kg, compared with the model group",no obvious difference
same,time percentage and swimming distance percentage in the first quadrant (probe test),"[8]; day 5, platform removed, against ischemia group, NsTyr-2K 30 and 60 mg/kg, nimotop control",statistical difference
same,period before finding the underwater platform and swimming distance,"[8]; days 3 and 4, compared with the ischemia group, NsTyr-2K 30 and 60 mg/kg, nimotop positive control",a shortened period before finding the underwater platform and a shortened swimming distance
same,solubility thermodynamic,"[9]; aqueous buffer, pH 2.0",0.0493 mg/mL
same,solubility thermodynamic,"[9]; aqueous buffer, pH 3.0",0.0585 mg/mL
same,solubility thermodynamic,"[9]; aqueous buffer, pH 4.0",0.188 mg/mL
same,solubility thermodynamic,"[9]; aqueous buffer, pH 5.0",0.221 mg/mL
same,solubility thermodynamic,"[9]; aqueous buffer, pH 6.0",0.243 mg/mL
same,solubility thermodynamic,"[9]; aqueous buffer, pH 7.0",0.251 mg/mL
same,solubility thermodynamic,"[9]; aqueous buffer, pH 8.0",0.286 mg/mL
same,solubility thermodynamic,"[9]; aqueous buffer, pH 9.0",0.37 mg/mL
same,solubility thermodynamic,"[9]; pH 7.4, aqueous buffer",0.27 mg/mL
